Target: angiotensin II receptor
Experiment: Adrenal Glomerulosa Test System: displacement of I^125-angiotensin II binding to rat adrenal membranes
Conditions: I^125-angiotensin II 0.1 nM, room temperature, 90 minutes, KI by Cheng Prusoff equation
Procedure: The compounds of Formula I are potent effective antagonists of angiotensin II. The ability of representative compounds of Formula I to block angiotensin II receptor binding was determined using the adrenal glomerulosa assay. The ability to antagonize angiotensininduced vasoconstriction was evaluated in the rabbit aorta test system.
Binding of I^125 -angiotensin II to adrenal membranes was routinely carried out in 96-well filtration plates. Adrenal membranes were prepared from the capsular portion (glomerulosal layer attached) of rat adrenal glands by differential centrifugation. Briefly, capsules were homogenized in a solution containing sucrose, 250 mM; MgCl2, 1 mM; and tris, 5 mM at pH 7.5 and 4° C. using a polytron at setting 5 for 20 seconds. The homogenate was stirred gently for 15 minutes at 4° C. and then centrifuged 10 minutes, at 1000×g, 4° C. The supernatant was centrifuged 30 minutes, at 30,000×g, 4° C., and the resulting pellet resuspended in 50 mM tris. Membrane preparations were stored in aliquots at -70° C. until used. Binding of I^125 -angiotensin II to adrenal membranes was performed at room temperature for 90 minutes in 96-well plates containing a hydrophilic polyvinylidene fluoride membrane (0.45 μm, Millipore-GV multiscreen). Each 250 μl incubate contained the following (final concentration): tris, 50 mM; NaCl, 120 mM; MgCl2, 5 mM; dithiothrietol 1 mM; bovine serum albumin, 0.05%; I^125 -angiotensin II, 0.1 nM; and adrenal membrane protein, 8-15 μg. Antagonists were added in concentrations from 10 nM to 100 μM. Non-specific binding was measured in the presence of 0.1 μM Sar1, Ile8 angiotensin II. Binding was terminated by vacuum filtration. Receptor-ligand complex trapped on filters was washed 3 times with 300 μl ice-cold wash solution (tris, 50 mM; NaCl, 120 mM; MgCl2, 5 mM; dithiothrietol, 1 mM). Filter discs were dried, punched out and counted in a gamma counter at 52% efficiency. Specific binding represented 96% of total binding (approximately 150 fmol angiotensin II/mg protein). The molar concentration (IC50) of the inhibitor that displaced 50% of the binding of 1125 angiotensin II for each compound was calculated using a 4 parameter logistics model (NonLin, SAS Institute). Data are expressed as KI (μm) calculated using the Cheng Prusoff equation. See Cheng et al. Biochemo Pharmacol. 22: 3099 (1973).

Compound	Ki [nM]
CCCCCCC(C(=O)O)n1ncc2cc(-c3ccccc3-c3nn[nH]n3)ccc21 (stereo not shown) [27 2H]	5430
CCCCCCC(C(=O)O)n1ccc2cc(-c3ccccc3C(=O)O)ccc21 (stereo not shown) [Example 1, 2[-5-(2-Carboxyphenyl)indol-1-yl]octanoic acid]	3860
CCCCCCC(C(=O)O)n1ccc2cc(-c3cccc(O)c3C(=O)O)ccc21 (stereo not shown) [Example 2, 2-[5-(2-Carboxy-3-hydroxyphenyl)indol-1-yl]octanoic acid]	9450
CCCCCCC(C(=O)O)n1cnc2cc(-c3ccccc3-c3nn[nH]n3)ccc21 (stereo not shown) [Example 3, 2-[5-[2-(2H-Tetrazol-5-yl)phenyl]-1H-benzimidazol-1-yl]octanoic acid]	5600
CCCCCCC(C(=O)O)n1c(C)nc2cc(-c3ccccc3-c3nnn[nH]3)ccc21 (stereo not shown) [Example 5]	360
CCCCCCC(c1nccn1C)n1cnc2cc(-c3ccccc3-c3nnn[nH]3)ccc21 (stereo not shown) [Example 14, 1-Methyl-2-[1-[5-2-(2H-Tetrazol-5-yl)phenyl-1H-benzimidazol-1-yl]heptyl]-1H-imidazole]	1080
CCCCCCC(CC(=O)O)n1ccc2cc(-c3ccccc3-c3nn[nH]n3)ccc21 (stereo not shown) [Example 21, 3-[5-[2-(2H-Tetrazol-5-yl)phenyl]indol-1-yl]nonanoic Acid]	2260
CCCCCC(C(=O)O)n1ccc2cc(-c3ccccc3-c3nn[nH]n3)ccc21 (stereo not shown) [Example 22, 2-[5-[2-(2H-Tetrazol-5-yl)phenyl]indol-1-yl]heptanoic Acid]	1720
CCCCCCC(C(=O)O)n1cc(Cc2ccccc2)c2cc(-c3ccccc3-c3nn[nH]n3)ccc21 (stereo not shown) [Example 24, 2-[3-benzyl-5-[2-(2H-tetrazol-5-yl)phenyl]indol-1-yl]octanoic Acid]	13700
CCCCCCC(C(=O)O)n1cc(Br)c2cc(-c3ccccc3-c3nnn[nH]3)ccc21 (stereo not shown) [Example 26, 2-[3-Bromo-5-[2-[2H-tetrazol-5-yl)phenyl]indo-1-yl]octanoic Acid]	5720
CCCCC(c1cccc(C(F)(F)F)c1)n1ccc2cc(-c3ccccc3-c3nn[nH]n3)ccc21 (stereo not shown) [Example 28, 5-[2-(2H-tetrazol-5-yl)phenyl]-1-[1-(3-trifluoromethylphenyl)-1-pentyl]indole]	14300
CCCCC(c1ccc(C(F)(F)F)cc1)n1ccc2cc(-c3ccccc3-c3nn[nH]n3)ccc21 (stereo not shown) [Example 29, 5-[2-(2H-tetrazol-5-yl)phenyl]-1-[1-(4-trifluoromethylphenyl)-1-pentyl]indole]	19200

The next lines start with the values.

Ki [nM]	Compound
85	CCCCCCC(C(=O)O)n1c(C(F)(F)F)nc2cc(-c3ccccc3-c3nn[nH]n3)ccc21 (stereo not shown) [Example 6, 2-[5-[2-(2H-Tetrazol-5-yl)phenyl]-2-trifluoromethyl-1H-benzimidazol-1-yl]octanoic acid]
29	CCCCCCC(C(=O)N1CCC[C@H]1C(=O)O)n1cnc2cc(-c3ccccc3-c3nn[nH]n3)ccc21 (stereo partly drawn) [Example 9, 1-[1-Oxo-2-[5-[2-(2H-tetrazol-5-yl)phenyl]-1H-benzimidazole-1-yl]octyl]-L-proline]
4.2	CCCCCCC(C(=O)N1CC(O)C[C@H]1C(=O)O)n1cnc2cc(-c3ccccc3-c3nn[nH]n3)ccc21 (stereo partly drawn) [Example 13, 1-[1-oxo-2-[5-[2-(2H-tetrazol-5-yl)phenyl]-1H-benzimidazole-1-yl]octyl]-4-hydroxy-L-proline]
62	CCCCCCC(c1nnn[nH]1)n1cnc2cc(-c3ccccc3-c3nnn[nH]3)ccc21 (stereo not shown) [Example 34]
81.4	CCCCCCC(C(=O)N(C)CC(=O)O)n1cnc2cc(-c3ccccc3-c3nn[nH]n3)ccc21 (stereo not shown) [Example 37, 1-[1-Oxo-2-[5-[2-(2H-tetrazol-5-yl]phenyl]-1H-benzimidazol-1]octyl]-N-methylglycine]
250	CCCCCCC(C(=O)N1CC2(C[C@H]1C(=O)O)OCCO2)n1cnc2cc(-c3ccccc3-c3nn[nH]n3)ccc21 (stereo partly shown) [Example 40]
100	CCCCCCC(C(=O)N[C@@H](CC(=O)O)C(=O)O)n1cnc2cc(-c3ccccc3-c3nn[nH]n3)ccc21 (stereo partly drawn) [Example 41, N-[1-Oxo-2-[5-[2-(2H-tetrazol-5-yl]phenyl]-1H-benzimidazol-1-yl]octyl]-L-aspartic Acid]
265	CCCCCCC(C(=O)N[C@@H](CO)C(=O)O)n1cnc2cc(-c3ccccc3-c3nn[nH]n3)ccc21 (stereo partly drawn) [Example 42, N-[1-oxo-2-[5-[2-(2H-tetrazol-5-yl]phenyl]-1H-benzimidazol-1-yl]octyl]-L-serine]
69	CCCCCCC(C(=O)N1CCC1C(=O)O)n1cnc2cc(-c3ccccc3-c3nn[nH]n3)ccc21 (stereo not shown) [Example 43]
199	CCCCCCC(C(=O)N1CCC(C(=O)O)C1)n1cnc2cc(-c3ccccc3-c3nn[nH]n3)ccc21 (stereo not shown) [Example 44]

Target: T1, rabbit aorta (Oryctolagus cuniculus, UniProt P34976)
T1 sequence (P34976 1-359): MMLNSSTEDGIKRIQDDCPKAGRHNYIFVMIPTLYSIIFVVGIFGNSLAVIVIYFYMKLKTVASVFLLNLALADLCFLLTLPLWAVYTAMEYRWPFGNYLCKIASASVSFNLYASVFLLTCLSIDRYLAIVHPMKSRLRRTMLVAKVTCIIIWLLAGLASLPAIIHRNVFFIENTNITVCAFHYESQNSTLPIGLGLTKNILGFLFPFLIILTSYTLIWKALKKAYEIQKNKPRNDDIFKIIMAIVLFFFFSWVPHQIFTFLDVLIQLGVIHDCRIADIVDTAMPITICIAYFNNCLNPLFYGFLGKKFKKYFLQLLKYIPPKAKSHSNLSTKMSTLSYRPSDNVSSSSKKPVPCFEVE
Experiment: Rabbit Aorta Test System: antagonism of angiotensin II-induced contraction of thoracic aorta rings
Assay type: cell-based, New Zealand white rabbit
Conditions: pA2 = -log KB; AII concentration response curve 10^-10 to 10^-7 M, 30 minutes incubation, 37° C.

Rabbit Aorta (pA2)	Compound
5.4	1-[5(and 6)-[2-(2H-Tetrazol-5-yl)phenyl]-2-pentyl-1H-benzimidazol-1-yl]acetic acid [Example 61]
6.5	2-[1-Hexyl-5-[2-(2H-tetrazol-5-yl)phenyl]-1H-benzimidazol-2-yl]propionic Acid [Example 30]
7.2	CCCCCC#CC(C(=O)O)n1cnc2cc(-c3ccccc3-c3nn[nH]n3)ccc21 (stereo not shown) [Example 16]
6.5	CCCC/C=C/C(C(=O)O)n1ccc2cc(-c3ccccc3-c3nn[nH]n3)ccc21 (stereo not drawn) [Example 25A, 2-[5-[2-(2H-Tetrazol-5-yl)phenyl]indol-1-yl]-3-trans-octenoic acid]
7.3	CCCC/C=C\C(C(=O)O)n1ccc2cc(-c3ccccc3-c3nn[nH]n3)ccc21 (stereo not drawn) [Example 25B, 2-[5-[2-(2H-tetrazol-5-yl)phenyl]indol-1-yl]-3-cis-octenoic acid]

Compound	Rabbit Aorta (pA2)
4-Butoxy-2-[5(and 6)-[2-(2H-tetrazol-5-yl)phenyl]-1H-benzimidazol-1-yl]-butanoic acid [Example 11]	6.7

From US5612360A, “Angiotensin II antagonists” (Eli Lilly and Company, priority 1993, dated 1997)
